Values of other authors, collected in article PMC7904743, “WIDOCK: a reactive docking protocol for virtual screening of covalent inhibitors” (Journal of Computer-Aided Molecular Design, 2021).
Like-named read-outs stand apart in the source and are kept apart here.

Legend:
[1] = tested on: OTUB2; conditions: OTUB2 protein labeling; experimental actives if % labeling higher than 50%; cited from earlier work
[2] = tested on: NUDT7; conditions: protein labeling at 200 μM; experimental actives if % labeling higher than 50%; cited from earlier work
[3] = thiol reactivity, cited from earlier work
[4] = natural log of average kinetic rate constant
[5] = natural log of average rate constant

SMILES | OTUB2 % labeling [1] [%] | NUDT7 % labeling [2] [%] | ln(avg k) [3, 4] | ln(avg k) [3, 5]
COCC(=O)NC(=O)CCl [PCM-0102904, COCC(=O)NC(=O)CCl] | 0 | 0 | -18.669 | -18.669
O=C(CCl)N1CCN(c2ccc(F)cc2)CC1 [PCM-0102905, O=C(CCl)N1CCN(c2ccc(F)cc2)CC1] | 7 | 10 | -15.525 | -15.525
COC(=O)CNC(=O)CCl [PCM-0102906, COC(=O)CNC(=O)CCl] | 6 | 0 | -17.517 | -17.517
O=C(CCl)NC(=O)Nc1ccc2c(c1)OCCCO2 [PCM-0102910, O=C(CCl)NC(=O)Nc1ccc2c(c1)OCCCO2] | 0 | 0 | -16.097 | -16.097
COC(=O)c1cc(Cl)cc(Cl)c1NC(=O)CCl [PCM-0102912, COC(=O)c1cc(Cl)cc(Cl)c1NC(=O)CCl] | 0 | 17 | -17.100 | -17.100
CC1CCC(NC(=O)CCl)CC1 (stereo not shown) [PCM-0102913, CC1CCC(NC(=O)CCl)CC1] | 8 | 0 | -16.529 | -16.529
O=C(CCl)Nc1ccc(Cl)cc1Cl [PCM-0102914, O=C(CCl)Nc1ccc(Cl)cc1Cl] | 14 | 22 | -16.384 | -16.384
O=C(CCl)Nc1ccc(N2CCCC2=O)cc1 [PCM-0102915, O=C(CCl)Nc1ccc(N2CCCC2=O)cc1] | 49 | 0 | -15.819 | -15.819
CN(C(=O)CCl)C1(C#N)CCCCC1 [PCM-0102916, CN(C(=O)CCl)C1(C#N)CCCCC1] | 0 | 0 | -15.114 | -15.114
CC(=O)c1oc2ccccc2c1NC(=O)CCl [PCM-0102918, CC(=O)c1oc2ccccc2c1NC(=O)CCl] | 0 | 39 | -15.842 | -15.842
O=C(CCl)N1CCN(Cc2ccccc2)C1=O [PCM-0102919, O=C(CCl)N1CCN(Cc2ccccc2)C1=O] | 10 | 0 | -18.275 | -18.275
O=C(CCl)N1CCC(c2nc3ccccc3o2)CC1 [PCM-0102920, O=C(CCl)N1CCC(c2nc3ccccc3o2)CC1] | 0 | 0 | -15.428 | -15.428
CN1CCN(C(=O)CCl)CC1 [PCM-0102921, CN1CCN(C(=O)CCl)CC1] | 0 | 0 | -17.315 | -17.315
CC(C)(C)OC(=O)N1CCCC(CNC(=O)CCl)C1 (stereo not shown) [PCM-0102923, CC(C)(C)OC(=O)N1CCCC(CNC(=O)CCl)C1] | 20 | 0 | -16.613 | -16.613
O=C(CCl)Nc1ccc(Br)cc1F [PCM-0102926, O=C(CCl)Nc1ccc(Br)cc1F] | 20 | 17 | -16.464 | -16.464
CC(C)c1nnc(NC(=O)CCl)s1 [PCM-0102928, CC(C)c1nnc(NC(=O)CCl)s1] | 0 | 4 | -15.769 | -15.769
COc1ccc(C2=CCN(C(=O)CCl)CC2)cc1 [PCM-0102929, COc1ccc(C2=CCN(C(=O)CCl)CC2)cc1] | 0 | 45 | -16.042 | -16.042
O=C(CCl)Nc1ccncc1 [PCM-0102930, O=C(CCl)Nc1ccncc1] | 0 | 0 | -16.813 | -16.813
O=C(CCl)NC1CCN(C(=O)C2CCCCC2)CC1 [PCM-0102931, O=C(CCl)NC1CCN(C(=O)C2CCCCC2)CC1] | 9 | 0 | -16.253 | -16.253
CC(=O)N1CCC(NC(=O)CCl)CC1 [PCM-0102932, CC(=O)N1CCC(NC(=O)CCl)CC1] | 7 | 0 | -16.417 | -16.417
CC1CCCN(C(=O)C2CCN(C(=O)CCl)CC2)C1 (stereo not shown) [PCM-0102933, CC1CCCN(C(=O)C2CCN(C(=O)CCl)CC2)C1] | 0 | 0 | -15.328 | -15.328
O=C(CCl)NC1(c2ccccc2)CCC1 [PCM-0102935, O=C(CCl)NC1(c2ccccc2)CCC1] | 0 | 29 | -16.140 | -16.140
